The target of one experiment is Coagulation factor XI (Homo sapiens, UniProt P03951). Kind of experiment: Inhibition Assay: Factor XIa determinations were made in 50 mM HEPES buffer at pH 7.4 containing 150 mM NaCl, 5 mM CaCl2, and 0.1% PEG 8000 (polyethylene glycol; JT Baker or Fisher Scientific). Determinations were made using purified human Factor XIa at a final concentration of 40 pM (Sekisui Diagnostics) and the synthetic substrate, Z-Gly-Pro-Arg-AFC, TFA salt (Sigma #C0980) at a concentration of 100 μM.
Sequence of Coagulation factor XI (P03951 19-387 limits assumed): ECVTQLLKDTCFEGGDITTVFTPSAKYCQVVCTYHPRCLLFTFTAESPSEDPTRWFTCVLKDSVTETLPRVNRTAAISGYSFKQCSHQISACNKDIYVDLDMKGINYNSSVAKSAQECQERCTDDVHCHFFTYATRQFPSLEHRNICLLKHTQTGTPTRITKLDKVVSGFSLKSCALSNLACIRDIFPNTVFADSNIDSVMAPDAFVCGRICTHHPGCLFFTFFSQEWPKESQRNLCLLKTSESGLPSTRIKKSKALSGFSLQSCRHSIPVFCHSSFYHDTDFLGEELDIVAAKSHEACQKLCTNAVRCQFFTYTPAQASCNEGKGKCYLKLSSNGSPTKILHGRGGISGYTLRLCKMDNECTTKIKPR
Sequence of Coagulation factor XI (P03951 388-625 limits assumed): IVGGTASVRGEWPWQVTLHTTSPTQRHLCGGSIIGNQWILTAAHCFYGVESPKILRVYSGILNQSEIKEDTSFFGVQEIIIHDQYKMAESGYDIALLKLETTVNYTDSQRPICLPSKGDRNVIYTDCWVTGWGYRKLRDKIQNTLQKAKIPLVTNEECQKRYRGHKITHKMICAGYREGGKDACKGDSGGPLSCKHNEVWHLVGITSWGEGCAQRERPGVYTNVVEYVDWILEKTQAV

For the next experiment, the target named is Plasma kallikrein (Homo sapiens, UniProt P03952). Kind of experiment: Kallikrein Assay: The effectiveness of a compound of the present invention as an inhibitor of Kallikrein can be determined using a relevant purified serine protease, and an appropriate synthetic substrate. The rate of hydrolysis of the chromogenic or fluorogenic substrate by the relevant serine protease was measured both in the absence and presence of compounds of the present invention. Assays were conducted at room temperature or at 37° C. […] A decrease in the rate of fluorescence change in the presence of inhibitor is indicative of enzyme inhibition. Such methods are known to one skilled in the art. […] Times required to achieve equilibration between enzyme and inhibitor were determined in control experiments. The reactions were performed under linear progress curve conditions and fluorescence increase measured at 405 Ex/510 Em nm. […] IC50 was determined by inflection point from a four parameter logistic curve fit. Ki was calculated using the Cheng Prusoff equation, Ki=IC50/(1+([S]/Km)).
Sequence of Plasma kallikrein (P03952 20-390 limits assumed): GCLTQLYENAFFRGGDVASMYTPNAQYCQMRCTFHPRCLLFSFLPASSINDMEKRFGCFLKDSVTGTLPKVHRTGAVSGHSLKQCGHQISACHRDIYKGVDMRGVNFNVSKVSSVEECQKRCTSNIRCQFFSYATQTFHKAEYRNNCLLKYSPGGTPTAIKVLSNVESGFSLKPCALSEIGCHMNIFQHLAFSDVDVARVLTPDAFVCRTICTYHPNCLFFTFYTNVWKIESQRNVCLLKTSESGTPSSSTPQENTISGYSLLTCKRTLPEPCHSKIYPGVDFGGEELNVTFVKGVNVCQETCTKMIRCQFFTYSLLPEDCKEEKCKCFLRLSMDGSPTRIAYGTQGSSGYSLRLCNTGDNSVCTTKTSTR
Sequence of Plasma kallikrein (P03952 391-638 limits assumed): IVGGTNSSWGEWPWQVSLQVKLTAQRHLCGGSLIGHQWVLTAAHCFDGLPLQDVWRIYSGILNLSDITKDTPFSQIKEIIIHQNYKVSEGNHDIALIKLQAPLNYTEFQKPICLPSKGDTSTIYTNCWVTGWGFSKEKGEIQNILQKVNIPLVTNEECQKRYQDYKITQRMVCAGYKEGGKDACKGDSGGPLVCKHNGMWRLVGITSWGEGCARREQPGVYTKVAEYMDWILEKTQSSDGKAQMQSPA

Each structure is given as a SMILES string.

Take `O=C(NC1CC=CC1)N1CCC(c2cccc([C@H](Cc3ccccc3)c3ccc(-c4cc(Cl)ccc4-n4cnnn4)c[n+]3[O-])c2)CC1`: the IC50 at Coagulation factor XI was 18.5 nM; at Plasma kallikrein, 696 nM.

A word on the IC50: it is the concentration at which inhibition is half-maximal.

The values above are taken from ChEMBL document CHEMBL5727040, “Factor XIa inhibitors” (2018).
